From PMC10689823, “Discovery of a Drug-like, Natural Product-Inspired DCAF11 Ligand Chemotype” (Nature Communications, 2023)
Where “and” joins values, the source holds several entries; their conditions need not be identical. Equal values may be shown once.

These compounds were tested on BRD2 (assay: In-Cell Western for BRD2 levels in Hep G2 cells). Conditions: Hep G2 cells; pretreated with MLN4924 at 1 μM 1 h, then 9 (10 μM, 4 h); single repeats; Fig. 4h.
Assay type: cell-based
Description: Hep G2 cells were seeded in 96-well plates and incubated for 24 h. Compounds were added for the indicated time at the indicated concentration. Cells were then washed once with PBS and fixed with 4% paraformaldehyde for 30 min at room temperature. The fixed cells were permeabilized with 0.5 % Triton-X100 for 15 min followed by block with Intercept® Blocking Buffer (LI-COR Biosciences, 927-70001) for 1 h at room temperature. Primary antibodies for BRD2 (1:800) and Vinculin (1:2000) were diluted with LI-COR buffer and incubated with the cells at 4 °C overnight. Cells were washed with PBS-T, and the secondary antibodies conjugated to IRDye (1:1000, LI-COR Biosciences) were added to the cells for 1 h at room temperature. After washing the cells, the signal was recorded with the Odyssey® CLx Infrared Imaging System (LI-COR Biosciences) and the protein levels were analyzed by Image Studio (LI-COR Biosciences). BRD2 protein levels were normalized to the levels of reference protein vinculin.

Row | SMILES | BRD2/Vinculin intensity (relative to control group)
1 | NS(=O)(=O)OC[C@@H]1C[C@@H](n2ccc3c(N[C@H]4CCc5ccccc54)ncnc32)C[C@@H]1O [MLN4924, reference compound] | 108.675 and 116.153 and 114.111

Same assay, conditions: Hep G2 cells; pretreated with compound at 30 μM 1 h, then 9 (10 μM, 4 h); single repeats; Fig. 4h

Row | SMILES | BRD2/Vinculin intensity (relative to control group)
2 | O=C1Nc2cccc(Br)c2C1=Cc1cc(Br)c(OCCO)c(Br)c1 [Compound 43] | 65.9619 and 44.3044 and 51.8651 and 61.4106
3 | Cc1ccc(C=C2C(=O)Nc3ccc(Br)cc32)o1 [Compound 21] | 35.3621 and 27.9558 and 29.5667 and 18.9355
4 | COc1cc(C=C2C(=O)Nc3ccc(Br)cc32)cc(OC)c1OC [Compound 38] | 42.8563 and 47.1155 and 46.6713 and 48.8801
5 | CCOc1cccc(C=C2C(=O)Nc3ccc(Br)cc32)c1O [Compound 34] | 32.5833 and 35.4683 and 36.0421 and 51.0354
6 | COc1cc2c(cc1OC)C(=CC=Cc1ccc(N(C)C)cc1)C(=O)N2 [Compound 29] | 35.199 and 32.8298 and 30.2931 and 29.1162
7 | O=C1Nc2cc(Cl)ccc2C1=Cc1c[nH]c2ccc(Br)cc12 [Compound 19] | 19.139 and 23.0411 and 26.0065 and 21.6242
8 | COc1cc(C)c(C=C2C(=O)Nc3ccccc32)cc1C [Compound 31] | 36.8879 and 36.7406 and 37.2822 and 33.8929
9 | O=C1Nc2ccc(Br)cc2C1=Cc1ccc(-c2ccc(Cl)cc2)o1 [Compound 24] | 33.2997 and 37.4269 and 27.7324 and 30.7224
10 | O=C1Nc2ccc([N+](=O)[O-])cc2C1=Cc1cc(Br)c(OCCO)c(Br)c1 [Compound 41] | 35.3006 and 58.464 and 60.939
11 | CCn1cc(C=C2C(=O)N(C)c3ccccc32)c2ccccc21 [Compound 22] | 27.5998 and 30.1143 and 27.5093 and 28.0162
12 | COc1cc(C=C2C(=O)Nc3ccc(Br)cc32)ccc1O [Compound 36] | 48.1488 and 40.4194 and 43.1435 and 45.121
13 | O=C1Nc2c(Br)cccc2C1=Cc1cc(Br)c(OCCO)c(Br)c1 [Compound 44] | 58.0241 and 42.9089 and 68.5528 and 58.6725
14 | COc1cc(OC)c(OC)cc1C=C1C(=O)Nc2ccc(Br)cc21 [Compound 32] | 37.3799 and 42.1343 and 35.9887 and 37.382
15 | CCOc1ccc(Br)c(C=C2C(=O)Nc3ccc(Br)cc32)c1 [Compound 30] | 30.1563 and 42.48 and 35.4039 and 36.6749
16 | COc1cc(C=C2C(=O)N(C(C)=O)c3ccc(Br)cc32)c(Br)cc1OC(C)=O [Compound 37] | 55.6586 and 50.2433 and 39.6211 and 39.558
17 | O=C1Nc2ccccc2C1=CC=Cc1ccccc1 [Compound 28] | 22.3518 and 31.2898 and 26.3948 and 28.7193
18 | CN1C(=O)C(=Cc2cc(Br)c(OCCO)c(Br)c2)c2cc(Br)ccc21 (mixture of isomers) [Compound 45] | 68.8291 and 61.2096 and 73.2245 and 67.5028
19 | CCOC(=O)c1ccc(-c2ccc(C=C3C(=O)Nc4ccc(Br)cc43)o2)cc1 [Compound 25] | 36.1651 and 31.9974 and 32.0528 and 31.1097
20 | O=C1Nc2ccc(Br)cc2C1=Cc1ccc2ccccc2n1 [Compound 26] | 39.8782 and 39.8556 and 38.9972 and 37.1452
21 | CC(=O)N1C(=O)C(=Cc2cc(Br)c(OCCO)c(Br)c2)c2cc(Br)ccc21 (mixture of isomers) [Compound 40] | 50.1992 and 43.5119 and 52.0339 and 53.5687
22 | COc1cccc(C=C2C(=O)Nc3ccc(Br)cc32)c1OCc1ccccc1 [Compound 27] | 30.4848 and 27.4717 and 21.0618 and 23.6161
23 | O=C1Nc2cc(Cl)c(Cl)cc2C1=Cc1cc(Br)c(OCCO)c(Br)c1 [Compound 33] | 39.4036 and 41.0431 and 32.5156 and 41.2316
24 | Cc1cccc(-n2c(C=C3C(=O)Nc4ccc(Br)cc43)nc3ccccc3c2=O)c1 [Compound 23] | 33.3864 and 29.794 and 26.5816 and 25.9636
25 | Cc1cc(C=C2C(=O)Nc3cc(Cl)ccc32)c(C)n1-c1ccc(Cl)cc1 [Compound 20] | 18.6668 and 28.7239 and 22.4508 and 22.3561
26 | CCOc1c(O)ccc(C=C2C(=O)Nc3ccc(Br)cc32)c1[N+](=O)[O-] [Compound 39] | 52.2917 and 48.4313 and 42.763 and 42.1712

Same assay, conditions: qualitative ICW assay; MLN4924 at 1 μM 1 h, then 9 (10 μM, 4 h); Supplementary Table 1

Row | SMILES | Value (Mean ± SD): Relative BRD2 levels remaining in Hep G2 cells after treatment with compounds followed by treatment with 9, with DMSO control for normalization
27 | NS(=O)(=O)OC[C@@H]1C[C@@H](n2ccc3c(N[C@H]4CCc5ccccc54)ncnc32)C[C@@H]1O [MLN4924, reference compound] | 112.98 ± 3.16

Same assay, conditions: qualitative ICW assay; pretreated at 30 μM 1 h, then 9 (10 μM, 4 h); Supplementary Table 1

Row | SMILES | Value (Mean ± SD): Relative BRD2 levels remaining in Hep G2 cells after treatment with compounds followed by treatment with 9, with DMSO control for normalization
28 | O=C1Nc2cccc(Br)c2C1=Cc1cc(Br)c(OCCO)c(Br)c1 [Compound 43] | 55.89 ± 8.40
29 | Cc1ccc(C=C2C(=O)Nc3ccc(Br)cc32)o1 [Compound 21] | 27.96 ± 5.89
30 | COc1cc(C=C2C(=O)Nc3ccc(Br)cc32)cc(OC)c1OC [Compound 38] | 46.38 ± 2.20
31 | CCOc1cccc(C=C2C(=O)Nc3ccc(Br)cc32)c1O [Compound 34] | 38.78 ± 7.19
32 | COc1cc2c(cc1OC)C(=CC=Cc1ccc(N(C)C)cc1)C(=O)N2 [Compound 29] | 31.86 ± 2.35
33 | O=C1Nc2cc(Cl)ccc2C1=Cc1c[nH]c2ccc(Br)cc12 [Compound 19] | 22.45 ± 2.48
34 | COc1cc2c(cc1OC)C(=Cc1ccc(OC)c(OC)c1OC)C(=O)N2 [Compound 35] | 43.80 ± 10.34
35 | COc1cc(C)c(C=C2C(=O)Nc3ccccc32)cc1C [Compound 31] | 36.20 ± 1.35
36 | O=C1Nc2ccc(Br)cc2C1=Cc1ccc(-c2ccc(Cl)cc2)o1 [Compound 24] | 32.30 ± 3.56
37 | O=C1Nc2ccc([N+](=O)[O-])cc2C1=Cc1cc(Br)c(OCCO)c(Br)c1 [Compound 41] | 51.57 ± 11.55
38 | CCn1cc(C=C2C(=O)N(C)c3ccccc32)c2ccccc21 [Compound 22] | 28.31 ± 1.06
39 | COc1cc(C=C2C(=O)Nc3ccc(Br)cc32)ccc1O [Compound 36] | 44.21 ± 2.82
40 | O=C1Nc2c(Br)cccc2C1=Cc1cc(Br)c(OCCO)c(Br)c1 [Compound 44] | 57.04 ± 9.16
41 | COc1cc(OC)c(OC)cc1C=C1C(=O)Nc2ccc(Br)cc21 [Compound 32] | 38.22 ± 2.33
42 | CCOc1ccc(Br)c(C=C2C(=O)Nc3ccc(Br)cc32)c1 [Compound 30] | 36.18 ± 4.38
43 | COc1cc(C=C2C(=O)N(C(C)=O)c3ccc(Br)cc32)c(Br)cc1OC(C)=O [Compound 37] | 46.27 ± 6.95
44 | O=C1Nc2ccccc2C1=CC=Cc1ccccc1 [Compound 28] | 27.19 ± 3.29
45 | CN1C(=O)C(=Cc2cc(Br)c(OCCO)c(Br)c2)c2cc(Br)ccc21 (mixture of isomers) [Compound 45] | 67.69 ± 4.30
46 | CCOC(=O)c1ccc(-c2ccc(C=C3C(=O)Nc4ccc(Br)cc43)o2)cc1 [Compound 25] | 32.83 ± 1.96
47 | O=C1Nc2ccc(Br)cc2C1=Cc1ccc2ccccc2n1 [Compound 26] | 38.97 ± 1.11
48 | O=C1Nc2cc(Br)ccc2C1=Cc1cc(Br)c(OCCO)c(Br)c1 [Compound 46] | 70.23 ± 9.63
49 | CC(=O)N1C(=O)C(=Cc2cc(Br)c(OCCO)c(Br)c2)c2cc(Br)ccc21 (mixture of isomers) [Compound 40] | 49.83 ± 3.84
50 | COc1cccc(C=C2C(=O)Nc3ccc(Br)cc32)c1OCc1ccccc1 [Compound 27] | 25.66 ± 3.60
51 | O=C1Nc2cc(Cl)c(Cl)cc2C1=Cc1cc(Br)c(OCCO)c(Br)c1 [Compound 33] | 38.55 ± 3.55
52 | Cc1cccc(-n2c(C=C3C(=O)Nc4ccc(Br)cc43)nc3ccccc3c2=O)c1 [Compound 23] | 28.93 ± 2.95
53 | O=C1C(=Cc2cc(Br)c(OCCO)c(Br)c2)c2ccccc2N1c1ccccc1 [Compound 47] | 72.76 ± 4.44
54 | Cc1cc(C=C2C(=O)Nc3cc(Cl)ccc32)c(C)n1-c1ccc(Cl)cc1 [Compound 20] | 23.05 ± 3.61
55 | CCOc1c(O)ccc(C=C2C(=O)Nc3ccc(Br)cc32)c1[N+](=O)[O-] [Compound 39] | 46.41 ± 4.18
